Values joined by “and” are separate entries in the source; they are usually repeats but may differ in a detail not shown here. Equal entries are not always repeated.
Experiments:
[1] = tested on: vascular restenosis, porcine coronary arteries; test: Trial B: coated magnesium stents implanted in porcine coronary arteries, 28 days; conditions: Group 1 (n = 5 stents), 223 μg drug in polylactic acid on parylene C coated magnesium stent; 28 days post-implant
Source text: Coronary artery measurements were made from angiographic images before stent deployment, immediately after deployment, and twenty-eight days after deployment to determine the effectiveness of the coated stent in reducing restenosis. Determination of angiographic late loss was made by subtraction of the minimum vessel lumen diameter of the stented vessel at 28 days post-implant from the minimal vessel lumen diameter at the time of implant. Determination of percent diameter stenosis was made at 28 days post-implant by the calculation of 100(1-MLD/refdia.) where MLD represents the minimum vessel lumen diameter at 28 days post-implant and refdia. is the average diameter of the vessel sections adjacent to the stented vessel.

[2] = Drug stability in rabbit aqueous humour at 37° C.; assay type: in vitro ADME
Source text: (§1) The assay comparison between sirolimus and the compounds of the present invention (denoted as CRC) is further described at Table XI.

[3] = Drug stability in rabbit vitreous humour at 37° C.; assay type: in vitro ADME, New Zealand White rabbit
Source text: as §1

[4] = Drug elution and total recovery from polymer-coated stents; assay type: physicochemical; conditions: single stent, 1:1 drug/polylactic acid coating; 25% ethanol in water, 37° C., 168 hours elution plus exhaustive acetonitrile extraction
Experimental: This section examines the stability of the compounds of the invention when released from a reservoir over a several-day to several-week period. In one study, a series of stents were prepared with a suitable coating of drug/polymer mixture. The stents were fabricated from laser cut and electropolished 316L Stainless Steel and measured 16 millimeters in length. The coating mixture contained an equal weight of polylactic acid and each of the compounds to be evaluated. The mixture components were weighed, combined in a glass vial with acetone at room temperature and then vortexed until all of the materials dissolved. Each individual stent was weighed using a Mettler model XP105 balance. […]
After visual inspection the stents were mounted onto 3.0 mm×16 mm angioplasty balloons using a hand crimper. […] The appropriate pressure for inflation was determined using the inflation table applicable to the angioplasty catheter. […]
For elution comparison each stent was transferred into its respective 7-mL borosilicate vial and 4.0 mL 25% ethanol in water (w/w) elution medium was added. […] The amount of drug eluted during each time interval was determined by HPLC. After a cumulative incubation of 168 hours, the remaining drug in each stent was determined by exhaustive extraction by adding 4.0 mL acetonitrile to each stent for 20 minutes at ambient temperature followed by vortexing for 10 seconds. […]

[5] = Stent coating condition after stent expansion (ductility); conditions: coating of 1:1 weight ratio drug and polylactic acid; compared with rapamycin coating
Source text: In accordance with one of the unexpected advantages of the present invention, it has been discovered that a coating formed with the compounds of the present invention is substantially more ductile, i.e., less prone to cracking, than a coating formed with rapamycin. This property can be seen from the photomicrographs of FIGS. 1 and 2, which show the condition of a stent coating after stent expansion in a stent formed of a 1:1 weight ratio of […] and polylactic acid (FIG. 1) and a coating formed of a 1:1 weight ratio of Compound 1 (Table I) and polylactic acid (FIG. 2). […] An important advantage of the drug compound in this setting is that a coating with a high drug:polymer ratio can be prepared without the need for addition of a separate plasticizer, which may cause toxic responses, affect drug elution rates, and extend development times and increase production costs.

[6] = 72 hours, drug dose 45.2 μg (SIR 1), 51.4 μg (CRC 1)
[7] = 72 hours, drug dose 48.4 μg (SIR 1), 52.2 μg (CRC 1)
[8] = […], drug dose 47.8 μg (SIR 2), 54.0 μg (CRC 2)

**Q.** What does the source list for CO[C@H]1C[C@@H]2CC[C@@H](C)[C@@](O)(O2)C(=O)C(=O)N2CCCC[C@H]2C(=O)O[C@H]([C@H](C)C[C@@H]2CC[C@@H](O)[C@H](OC)C2)CC(=O)[C@H](C)/C=C(\C)[C@@H](O)[C@@H](OC)C(=O)[C@H](C)C[C@H](C)/C=C/C=C/C=C/1C [Rapamycin]?
**A.** Angiographic Late Loss [1]: 0.42 mm; Diameter Stenosis [1]: 13.1%; Degradants (HPLC UV Area Percent) ([2]; 0 hrs): 2%; Intact drug (HPLC UV Area Percent) ([2]; 0 hrs): 98%; Degradants (HPLC UV Area Percent) ([2]; 1 hrs): 4%; Intact drug (HPLC UV Area Percent) ([2]; 1 hrs): 96%; Degradants (HPLC UV Area Percent) ([2]; 4 hrs): 18%; Intact drug (HPLC UV Area Percent) ([2]; 4 hrs): 82%; Degradants (HPLC UV Area Percent) ([2]; 24 hrs): 86%; Intact drug (HPLC UV Area Percent) ([2]; 24 hrs): 14%; Degradants (HPLC UV Area Percent) ([2]; 48 hrs): 96%; Intact drug (HPLC UV Area Percent) ([2]; 48 hrs): 4%; % Remaining (72 Hours) [2, 6]: 0%; Drug Remaining 72 Hours [2, 6]: 0.0 µg; Degradants (HPLC UV Area Percent) ([2]; 72 hrs): 100%; Intact drug (HPLC UV Area Percent) ([2]; 72 hrs): 0%; Degradants (HPLC UV Area Percent) ([3]; 0 hrs): 3%; Intact drug (HPLC UV Area Percent) ([3]; 0 hrs): 97%; Degradants (HPLC UV Area Percent) ([3]; 1 hrs): 3%; Intact drug (HPLC UV Area Percent) ([3]; 1 hrs): 97%; Degradants (HPLC UV Area Percent) ([3]; 4 hrs): 7%; Intact drug (HPLC UV Area Percent) ([3]; 4 hrs): 93%; Degradants (HPLC UV Area Percent) ([3]; 24 hrs): 43%; Intact drug (HPLC UV Area Percent) ([3]; 24 hrs): 57%; Degradants (HPLC UV Area Percent) ([3]; 48 hrs): 71%; Intact drug (HPLC UV Area Percent) ([3]; 48 hrs): 29%; % Remaining (72 Hours) [3, 7]: 8%; Drug Remaining 72 Hours [3, 7]: 4.0 µg; Degradants (HPLC UV Area Percent) ([3]; 72 hrs): 84%; Intact drug (HPLC UV Area Percent) ([3]; 72 hrs): 16%; % Remaining (192 Hours) [3, 8]: 1%; Drug Remaining 192 Hours [3, 8]: 0.6 µg; Total Drug (μg) Recovered [4]: 109.1 µg and 84.6 µg and 103.4 µg and 125.2 µg and 71.6 µg

**Q.** With COC1CC2CCC(C)C(O)(O2)C(=O)C(=O)N2CCCCC2C(=O)OC(C(C)CC2CCC(OC(=O)C3CC3)C(OC)C2)CC(=O)C(C)C=C(C)C(O)C(OC)C(=O)C(C)CC(C)C=CC=CC=C1C (stereo not shown) [Compound 1, Rapamycin 40-O-Cyclic Hydrocarbon Ester with Cyclopropanecarbonyl Chloride] as the compound, how does the “condition of stent coating after stent expansion (ductility)” value [5] read?
**A.** The value was “more ductile”.

Reference: patent US11383009B2, “Rapamycin 40-O-cyclic hydrocarbon esters, compositions and methods” (BIOTRONIK AG, priority 2012, dated 2022)
